In ChEMBL document CHEMBL2176918, “Design and optimization of pyrazinecarboxamide-based inhibitors of diacylglycerol acyltransferase 1 (DGAT1) leading to a clinical candidate dimethylpyrazinecarboxamide phenylcyclohexylacetic acid (AZD7687)” (J Med Chem, 2012):
In brackets after ≈: the same amount, converted by molar mass.

Experiments:
[1] = Fraction unbound in human plasma at 37 degC by LC-UV/MS method based equilibrium dialysis method
Cytochrome P450 2D6 = Cytochrome P450 2D6 (Homo sapiens, UniProt P10635); experiment: Inhibition of CYP2D6; type: ADME
[2] = Tmax in human at 1 to 20 mg; type: ADME, organism-based; conditions: in vivo
Rattus norvegicus [3] = experiment: Inhibition of plasma triacylglycerol excursion in 14 hrs fasted Han-Wistar rat at administered orally 2 hrs before bolus corn oil administration measured 1.5 hrs post corn oil challenge by oral lipid tolerance test relative to control
[4] = Apparent permeability from apical to basolateral side in MDCK cells at pH 7.4; conditions: dog
[5] = target: T1, Diacylglycerol O-acyltransferase 1 (Homo sapiens, UniProt O75907); experiment: Inhibition of DGAT1 in human HuTu80 cells; type: cell-based
T1 sequence (O75907 whole entry): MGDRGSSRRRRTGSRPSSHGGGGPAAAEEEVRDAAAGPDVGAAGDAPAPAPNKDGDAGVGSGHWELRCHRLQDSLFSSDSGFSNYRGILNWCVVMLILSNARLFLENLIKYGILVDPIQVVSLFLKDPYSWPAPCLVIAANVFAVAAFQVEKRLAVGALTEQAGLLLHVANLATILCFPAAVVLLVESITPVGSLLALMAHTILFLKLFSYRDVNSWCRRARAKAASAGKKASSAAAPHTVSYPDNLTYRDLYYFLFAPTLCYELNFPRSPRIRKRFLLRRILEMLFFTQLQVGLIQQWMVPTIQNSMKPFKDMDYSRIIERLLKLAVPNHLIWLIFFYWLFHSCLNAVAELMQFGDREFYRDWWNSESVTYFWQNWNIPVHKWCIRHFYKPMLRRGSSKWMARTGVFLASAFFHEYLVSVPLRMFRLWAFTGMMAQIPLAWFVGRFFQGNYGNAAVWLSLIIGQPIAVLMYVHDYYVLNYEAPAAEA

[6] = Solubility in 0.1 M phosphate buffer at pH 7.4 at 25 degC incubated for 24 hrs
[7] = Volume of distribution in Beagle dog at 27.2 uM/kg, po or 1.4 uM/kg, iv; type: ADME, organism-based, Canis lupus familiaris; conditions: in vivo
Cytochrome P450 1A2 = target: T2, Cytochrome P450 1A2 (Homo sapiens, UniProt P05177); experiment: Inhibition of CYP1A2; type: ADME
T2 sequence (P05177 whole entry): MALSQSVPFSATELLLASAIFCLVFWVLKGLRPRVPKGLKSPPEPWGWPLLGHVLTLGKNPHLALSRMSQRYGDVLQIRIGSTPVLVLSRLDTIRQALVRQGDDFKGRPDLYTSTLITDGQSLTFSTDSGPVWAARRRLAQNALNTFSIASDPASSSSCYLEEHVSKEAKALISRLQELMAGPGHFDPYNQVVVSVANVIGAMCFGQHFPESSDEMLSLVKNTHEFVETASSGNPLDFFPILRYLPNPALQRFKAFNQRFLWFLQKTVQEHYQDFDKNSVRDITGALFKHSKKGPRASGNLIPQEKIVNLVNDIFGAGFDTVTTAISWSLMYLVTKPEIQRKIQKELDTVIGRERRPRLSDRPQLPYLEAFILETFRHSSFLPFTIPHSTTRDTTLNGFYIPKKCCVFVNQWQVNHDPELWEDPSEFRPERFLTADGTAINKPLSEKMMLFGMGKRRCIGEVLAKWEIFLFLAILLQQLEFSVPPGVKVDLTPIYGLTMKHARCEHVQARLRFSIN

Cytochrome P450 2C19 = Cytochrome P450 2C19 (Homo sapiens, UniProt P33261); experiment: Inhibition of CYP2C19; type: ADME
[8] = target: T1, Diacylglycerol O-acyltransferase 1; experiment: Inhibition of DGAT1 in human adipose tissue assessed as reduction in triacylglycerol synthesis
[9] = Clearance in C57BL/6 mouse at 8.16 uM/kg, po or 5.4 uM/kg, iv; type: ADME, organism-based; conditions: in vivo
[10] = target: T3, Sterol O-acyltransferase 2 (Homo sapiens, UniProt O75908); experiment: Inhibition of human ACAT2 by liquid scintillography
T3 sequence (O75908 whole entry): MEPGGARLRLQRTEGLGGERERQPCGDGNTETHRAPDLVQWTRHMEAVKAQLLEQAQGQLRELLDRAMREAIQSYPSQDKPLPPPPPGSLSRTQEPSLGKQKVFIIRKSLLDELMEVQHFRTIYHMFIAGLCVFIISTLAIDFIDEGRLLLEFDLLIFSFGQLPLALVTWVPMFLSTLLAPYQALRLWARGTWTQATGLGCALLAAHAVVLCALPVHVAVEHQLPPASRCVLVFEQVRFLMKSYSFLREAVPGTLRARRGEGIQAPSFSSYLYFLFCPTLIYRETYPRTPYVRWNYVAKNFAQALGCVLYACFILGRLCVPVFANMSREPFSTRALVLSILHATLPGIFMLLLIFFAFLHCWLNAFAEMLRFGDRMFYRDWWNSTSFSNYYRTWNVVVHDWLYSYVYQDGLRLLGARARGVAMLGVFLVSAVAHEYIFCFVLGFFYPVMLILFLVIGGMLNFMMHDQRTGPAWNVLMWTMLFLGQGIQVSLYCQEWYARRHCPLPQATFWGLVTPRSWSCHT

[11] = target: T4, Diacylglycerol O-acyltransferase 1 (Rattus norvegicus, UniProt Q9ERM3); experiment: Inhibition of DGAT1 in rat adipose tissue assessed as reduction in triacylglycerol synthesis; type: tissue-based
T4 sequence (Q9ERM3 whole entry): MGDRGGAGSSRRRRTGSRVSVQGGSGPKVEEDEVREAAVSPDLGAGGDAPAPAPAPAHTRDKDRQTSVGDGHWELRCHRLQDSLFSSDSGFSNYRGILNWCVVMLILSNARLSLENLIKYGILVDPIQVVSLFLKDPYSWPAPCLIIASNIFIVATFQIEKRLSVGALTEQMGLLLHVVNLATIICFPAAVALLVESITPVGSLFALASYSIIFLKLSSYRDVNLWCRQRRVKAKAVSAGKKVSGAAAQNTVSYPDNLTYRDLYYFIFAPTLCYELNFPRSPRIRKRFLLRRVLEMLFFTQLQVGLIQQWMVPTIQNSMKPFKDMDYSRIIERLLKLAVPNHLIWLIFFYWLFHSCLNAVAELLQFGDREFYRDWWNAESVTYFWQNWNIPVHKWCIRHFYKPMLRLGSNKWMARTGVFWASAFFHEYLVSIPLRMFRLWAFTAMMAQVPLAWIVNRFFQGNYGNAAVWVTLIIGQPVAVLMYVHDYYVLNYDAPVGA

[12] = Clearance in Han-Wistar rat at 5.4 uM/kg, po or 2.7 uM/kg, iv; type: ADME, organism-based; conditions: in vivo
Rattus norvegicus [13] = experiment: Inhibition of adipose triacylglycerol synthesis in 14 hrs fasted Han-Wistar rat assessed as decrease in ratio of [3H]palmitic acid incorporation in to TAG and DAG at 8 mg/kg administered orally and measured 1.5 hrs post dose relative to control
[14] = Intrinsic clearance in rat hepatocytes assessed as parent compound disappearance at 1 uM per 10^6 cells; type: ADME, cell-based, Hepatocyte; conditions: read-out: CLH
[15] = Terminal half life in human at 1 to 20 mg; type: ADME, organism-based; conditions: in vivo, read-out: beta t1/2 (converted)

Cytochrome P450 2C19, sequence (P33261 whole entry): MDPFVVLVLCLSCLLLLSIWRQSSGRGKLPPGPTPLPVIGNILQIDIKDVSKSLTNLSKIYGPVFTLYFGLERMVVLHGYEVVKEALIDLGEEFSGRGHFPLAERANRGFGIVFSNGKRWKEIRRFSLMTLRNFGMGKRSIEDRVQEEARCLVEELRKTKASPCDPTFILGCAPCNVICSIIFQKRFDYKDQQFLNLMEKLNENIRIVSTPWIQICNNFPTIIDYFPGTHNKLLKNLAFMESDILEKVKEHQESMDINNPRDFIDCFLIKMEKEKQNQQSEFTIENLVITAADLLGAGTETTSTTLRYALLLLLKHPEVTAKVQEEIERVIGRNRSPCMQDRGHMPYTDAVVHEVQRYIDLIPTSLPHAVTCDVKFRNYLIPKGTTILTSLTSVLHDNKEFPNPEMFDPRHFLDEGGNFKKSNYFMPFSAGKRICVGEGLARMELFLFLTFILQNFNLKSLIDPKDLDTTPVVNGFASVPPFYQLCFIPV
Cytochrome P450 2D6, sequence (P10635 whole entry): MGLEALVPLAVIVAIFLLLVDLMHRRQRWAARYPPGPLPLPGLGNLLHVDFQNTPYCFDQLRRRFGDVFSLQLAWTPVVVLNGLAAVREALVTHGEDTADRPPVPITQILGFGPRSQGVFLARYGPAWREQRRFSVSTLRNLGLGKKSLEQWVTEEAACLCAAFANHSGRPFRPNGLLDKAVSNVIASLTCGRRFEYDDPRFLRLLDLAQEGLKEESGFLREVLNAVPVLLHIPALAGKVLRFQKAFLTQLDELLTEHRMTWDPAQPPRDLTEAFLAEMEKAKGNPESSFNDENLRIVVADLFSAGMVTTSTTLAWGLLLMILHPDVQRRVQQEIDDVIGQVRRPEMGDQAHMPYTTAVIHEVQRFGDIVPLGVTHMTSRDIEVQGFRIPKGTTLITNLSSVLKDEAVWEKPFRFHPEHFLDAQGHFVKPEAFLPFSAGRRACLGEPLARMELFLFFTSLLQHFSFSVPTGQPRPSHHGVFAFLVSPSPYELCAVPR

fraction unbound [1]: 0.047
IC50 (Cytochrome P450 2D6): > 30000 nM
Tmax [2]: ≤ 1 h
Papp A→B [4]: 12 ×10⁻⁶ cm/s
IC50 [5]: 10 nM
solubility at 24 h [6]: 700 µM (≈ 257 µg/mL)
Vd [7]: 1 L/kg
IC50 (Cytochrome P450 1A2): > 30000 nM
IC50 (Cytochrome P450 2C19): > 30000 nM
IC50 [8]: 10 nM
clearance [9]: 0.77 mL/min/kg
IC50 [10]: > 10000 nM
IC50 [11]: 90 nM
clearance [12]: 0.5 mL/min/kg
IC50 (Rattus norvegicus [13]): 132 nM
hepatocyte CLint at 1 µM [14]: < 2 µL/min/1e6 cells
half-life [15]: 9 h
SMILES: Cc1nc(C)c(-c2ccc(C3CCC(CC(=O)O)CC3)cc2)nc1C(N)=O (stereo not drawn) [AZD-7687]
IC50 (Rattus norvegicus [3]): 42 nM
